{"source": "patent US20090062122A1", "about": "“Cotton Growth Regulator” (FMC Corporation, priority 2006, published 2009)", "system": "cotton, variety D&PL 555", "assay": "Cotton yield", "assay_type": "in vivo", "conditions": "5 replicates", "experimental": "The trial was performed on cotton, variety D&PL 555. The formulated test compounds were diluted to the appropriate concentrations with water to which a crop oil concentrate (1% to 2% v/v) or a non-ionic surfactant (0.25% v/v) was added. The application of the test composition as a cotton plant growth regulator was performed using pressurized, over-the-top spray equipment consisting of a research scale boom sprayer. Deposit of the test composition was primarily to the top of the cotton plants, minimizing spray deposition to lower branches, leaves and fruit. The finished spray volume was 10 gallons per acre, with sprayer nozzle design, orientation and nozzle pressures chosen to prevent spray drift. Applications were made at first sign of cotton boll opening and at 15%, 20% and 40% open bolls.\nThe experimental design used randomized plots with 1 to 4 treatment rates of test composition and from 1 to 10 replications depending on the test (sees tables below). The size of each experimental plot was about 15 m^2. Testing was performed in Texas, North Carolina, Mississippi and Georgia.\nThe results, shown as the mean of the indicated number of replications, were compared with results observed in the same trials with an untreated control.", "data": [{"smiles": "CCOC(=O)C(Cl)Cc1cc(-n2nc(C)n(C(F)F)c2=O)c(F)cc1Cl", "note": "(centres unmarked) [carfentrazone-ethyl, ethyl 2-chloro-3-[2-chloro-5-(4-difluoromethyl-3-methyl-5-oxo-4,5-dihydro-[1,2,4]-triazol-1-yl)-4-fluorophenyl]propionate]", "values": [{"measurement": "Cotton yield", "setting": "20% open bolls application, 0.002 lb ai/a", "result": 1168, "unit": "Lb lint/Acre"}, {"measurement": "Cotton yield", "setting": "20% open bolls application, 0.004 lb ai/a", "result": 1128, "unit": "Lb lint/Acre"}, {"measurement": "Cotton yield", "setting": "20% open bolls application, 0.006 lb ai/a", "result": 1107, "unit": "Lb lint/Acre"}, {"measurement": "Cotton yield", "setting": "20% open bolls application, 0.008 lb ai/a", "result": 1178, "unit": "Lb lint/Acre"}, {"measurement": "Cotton yield", "setting": "first open boll application, 0.002 lb ai/a", "result": 1172, "unit": "Lb lint/Acre"}, {"measurement": "Cotton yield", "setting": "first open boll application, 0.004 lb ai/a", "result": 1004, "unit": "Lb lint/Acre"}, {"measurement": "Cotton yield", "setting": "first open boll application, 0.006 lb ai/a", "result": 1152, "unit": "Lb lint/Acre"}, {"measurement": "Cotton yield", "setting": "first open boll application, 0.008 lb ai/a", "result": 1167, "unit": "Lb lint/Acre"}]}]}
